Data on 2 compounds can be found in US20080220103A1, “METHOD FOR TREATING/CONTROLLING/KILLING FUNGI AND BACTERIA ON LIVING ANIMALS” (priority 2005, published 2008).

Converted amounts (≈) assume the structure as drawn.

Holding throughout (format): cell-based, Trichophyton rubrum
In experiment [1] the test system is terbinafine-resistant T. rubrum. Put plainly: MIC against terbinafine-resistant isolates. As to the method:
Minimum Inhibitory Concentration (MIC): Minimum inhibitory concentrations of synthetic and semisynthetic and natural products against dermatophytes were determined using a modification of the Clinical Laboratory Standards Institute (CLSI, formerly National Committee of Clinical Laboratory Standards, NCCLS) M38A standard method for dermatophytes, while MIC of these agents against Candida species were determined using the CLSI M27-A2 methodology. The method used to determine the MIC against bacteria was based on the CLSI document M7-A7.
For dermatophytes, serial dilutions of terbinafine, tolnaftate were prepared in a range of 0.004-2 μg/ml, while for miconazole concentrations ranged between 0.015-8 μg/ml. Finally, for essential oils, the concentrations tested were between 0.03-16 μg/ml. The only exception was tea tree oil where dilutions were prepared in a range of 0.0078-4 μg/ml. The MIC was read at 4 days post inoculation and defined as the lowest concentration of an agent to inhibit 80% of fungal growth as compared to the growth control (Table 2).

Experiment [2] deals with T. rubrum. Nature of the experiment: Pre-treatment insole assay, combination (FIG. 10). The conditions noted are these: 0.01% synthetic agent, 3% tea tree oil, singly or combined.
Protocol: Pre-treatment assays: To evaluate the ability of different agents to prevent fungal contaminations of shoes, PDA plates were prepared on which 10^4 T. mentagrophytes cells were evenly spread. Next, discs from insoles and leather were treated as follows (with either agent or control vehicle): discs were pretreated with a single spray, spraying for 15 second or 30 second. Other discs were immersed in agent or vehicle for 30 min. Following this treatment, discs were air-dried by placing them in a Petri plate for 1 min. These dried discs were then placed (drug side down) on the seeded PDA plates. Plates were then incubated for 4 days at 30° C. Following incubation, fungal growth was recorded. […] Diameter of the clearance zone (CZD) was measured. The relative activity of different agents and control were assessed. […] To determine whether using combination of synthetic compounds and essential oils will allow the use of low concentrations of synthetic drugs, we tested the ability of combination of 0.01% tolnaftate and 3% tea tree oil to prevent shoe contamination using the pre- and post-treatment insole bioassays described above.
The test system of experiment [3] is T. rubrum. Nature of the experiment: Post-treatment insole assay, combination (FIG. 10). The following applies: 0.01% tolnaftate, 3% tea tree oil, singly or combined.
Where [4] appears, read: Trichophyton rubrum, terbinafine-resistant T. rubrum, n = 11.

Consider `CN(C/C=C/C#CC(C)(C)C)Cc1cccc2ccccc12` [Terbinafine, terbinafine], for which the MIC came out at 16 µg/mL (≈ 54.9 µM) in experiment [1] (Trichophyton rubrum, T. rubrum MRL 666); 16 µg/mL (≈ 54.9 µM) in experiment [1] (Trichophyton rubrum, T. rubrum MRL 670); 4 µg/mL (≈ 13.7 µM) in experiment [1] (Trichophyton rubrum, T. rubrum MRL 671); 4 µg/mL (≈ 13.7 µM) in experiment [1] (Trichophyton rubrum, T. rubrum MRL 1386); 4 µg/mL (≈ 13.7 µM) in experiment [1] (Trichophyton rubrum, T. rubrum MRL 1806); 4 µg/mL (≈ 13.7 µM) in experiment [1] (Trichophyton rubrum, T. rubrum MRL 1807). Besides, the MIC in experiment [1] (Trichophyton rubrum, T. rubrum MRL 1808) came to 16 µg/mL (≈ 54.9 µM); in experiment [1] (Trichophyton rubrum, T. rubrum MRL 1809), 16 µg/mL (≈ 54.9 µM); in experiment [1] (Trichophyton rubrum, T. rubrum MRL 1810) it was 4 µg/mL (≈ 13.7 µM); in experiment [1] (Trichophyton rubrum, T. rubrum MRL 2499) it was 4 µg/mL (≈ 13.7 µM); in experiment [1] (Trichophyton rubrum, T. rubrum MRL 2727), 2 µg/mL (≈ 6.86 µM). The same compound registered an MIC50 in experiment [1] (setting [4]) of 4 µg/mL (≈ 13.7 µM). This compound gave an MIC90 in experiment [1] (setting [4]) of 16 µg/mL (≈ 54.9 µM). The “MIC Range” value in experiment [1] (terbinafine-resistant T. rubrum, n = 11) fell in the range of 2 to 16 µg/mL. Moreover, in the experiment with T. rubrum [2], the “effect of pretreatment of insoles on fungal growth” value is “did not result in any inhibition of fungal growth”.
Regarding `Cc1cccc(N(C)C(=S)Oc2ccc3ccccc3c2)c1` [Tolnaftate, tolnaftate], the “effect of post-contamination treatment of insoles on fungal growth” value in the experiment on T. rubrum [3] is recorded as “did not prevent growth of fungus”.

What is called MIC is the least concentration at which growth counts as inhibited. What is called MIC50 is an inhibitory concentration at the 50% level, which refers to growth in some studies and to a panel of isolates in others. High values mean weaker potency, low ones greater potency. As usually defined, the MIC90 is an inhibitory concentration at the 90% level, which refers to growth in some studies and to a panel of isolates in others. Read a low MIC90 as higher susceptibility.
